# Earlier results as cited in US9968537B2, “Anti-dandruff compositions and hair care formulations containing zinc pyrithione and quaternary ammonium salt” (JUBILANT LIFE SCIENCES LIMITED, priority 2013, dated 2018).
# Details: background statement
smiles,measurement,value
"[O-][n+]1ccccc1S.[Zn] [ZPTO, zinc pyridine-2-thiol-N-oxide]",solubility in water,6-12 ppm
